Active and inactive are the calls of the source. No cut-off for these calls is given here. Square brackets hold non-standard residues; d marks the D form. Peptide text beside a SMILES is read from it. * marks the point of attachment. pGlu = O=C1CC[C@@H](C(=O)O)N1; NHtBu = CC(C)(C)N*; NHiPr = CC(C)N*; NHPr = CCCN*; For = O=C*

The first assay concerns Mus musculus. Put plainly: Inhibition of oxotremorine-induced tremor in ip dosed NMRI mouse administered 1 hr prior to oxotremorine challenge. In kind it is functional.
The compound `CC(C)C[C@H](NC(=O)[C@@H]1CCCN1)C(=O)NCC(N)=O` (H-Pro-Leu-Gly-NH2) gave an Activity of 3.6 mg/kg.
The same measure, in the same setting: the same measure for `CCNC(=O)CNC(=O)[C@H](CC(C)C)NC(=O)[C@@H]1CCC(=O)N1` ([pGlu]-Leu-Gly-NHEt): 7.8 mg/kg.
For `CCCNC(=O)CNC(=O)[C@H](CC(C)C)NC(=O)[C@@H]1CCC(=O)N1` ([pGlu]-Leu-Gly-NHPr), the Activity was determined as 10 mg/kg.
Consider `CC(C)C[C@H](NC(=O)[C@@H]1CCC(=O)N1)C(=O)NCC(=O)NC(C)C` ([pGlu]-Leu-Gly-NHiPr), for which the Activity came to 2.9 mg/kg.
With `CC(C)C[C@H](NC(=O)[C@@H]1CCC(=O)N1)C(=O)NCC(=O)N(C)C` ([pGlu]-Leu-Gly-NMe2), the Activity was found to be 1.3 mg/kg.

Another assay deals with Mus musculus. The assay can be described thus: Inhibition of oxotremorine-induced tremor in NMRI mouse at 0.13 to 16 mg/kg, ip administered 1 hr prior to oxotremorine challenge. In kind it is functional, organism-based.
As for `C#CCNC(=O)CNC(=O)[C@H](CC(C)C)NC(=O)[C@@H]1CCC(=O)N1`, the inhibition result was “inactive”.
For `CC(C)C[C@@H]1NC(=O)[C@@H]2CCCN2C1=O`, the inhibition result was “inactive”.
Take `CC(C)C[C@H](NC(=O)C1CCCC1)C(=O)NCC(N)=O`: the inhibition entry is “inactive”.
Take `CCN(C)C(=O)CNC(=O)[C@H](CC(C)C)NC(=O)[C@@H]1CCC(=O)N1`: the inhibition entry is “inactive”.
As to `CCNC(=O)CNC(=O)[C@H](CC(C)C)NC(=O)C1CCCC1`, the inhibition entry was “inactive”.
For the compound `CC(C)C[C@H](NC(=O)[C@@H]1CCCN1C=O)C(=O)NCC(N)=O` (For-Pro-Leu-Gly-NH2), the inhibition result is “inactive”.
The same measure, in the same setting: the same measure for `CCNC(=O)CNC(=O)[C@H](CC(C)C)NC(=O)[C@@H]1CCCN1C=O` (For-Pro-Leu-Gly-NHEt): “inactive”; for `N=C(N)NCCC[C@H](NC(=O)[C@@H]1CCCN1)C(=O)NCC(N)=O` (H-Pro-Arg-Gly-NH2): “inactive”; for `NCCCC[C@H](NC(=O)[C@@H]1CCCN1)C(=O)NCC(N)=O` (H-Pro-Lys-Gly-NH2): “inactive”.
With `CNC(=O)CNC(=O)[C@H](CC(C)C)NC(=O)[C@@H]1CCC(=O)N1` ([pGlu]-Leu-Gly-NHMe), the inhibition entry is “inactive”.
As for `CC(C)C[C@H](NC(=O)[C@@H]1CCC(=O)N1)C(=O)NCC(=O)NC(C)(C)C` ([pGlu]-Leu-Gly-NHtBu), the inhibition result was “inactive”.

The values above are taken from ChEMBL document CHEMBL3244209, “Tripeptide analogues of melanocyte-stimulating hormone release-inhibiting hormone (Pro-Leu-Gly-NH2) as inhibitors of oxotremorine-induced tremor” (1979).
